Measured values taken from patent US20030027981A1, “Urokinase-type plasminogen activator receptor” (priority 1989, published 2003).

Assays:
u-PA = u-PA activity in medium of HT-1080 cultures (immunocapture assay); format: cell-based, human
Experimental: Cell culture supernatants were assayed for pro-u-PA and active u-PA by the following modification of an immunocapture method (Stephens et al., 1988; Stephens et al., 1987). Microtitre wells of polystyrene immunoplates (type 269620, A/S Nunc, Roskilde, Denmark) were coated overnight at 37° C. with 50 μl of a solution of goat IgG antibodies to human u-PA (cat. #398, American Diagnostica). The coating solution contained 2.5 μg of IgG per ml of […] sodium carbonate (pH 9.8). After rinsing, the wells were treated with conditioned medium ([…]) for 2 hours at 23° C., then rinsed again. Half the wells were then treated with 50 μl of freshly prepared 2 μM p-nitrophenyl guanidinobenzoate (NPGB, Sigma) (Danø, K., and E. Reich, “Plasminogen activator from cells transformed by an oncogenic virus—Inhibitors of the activator reaction”, Biochim. Biophys. Acta 566: 138-151, 1979) for 20 minutes at 37° C. The other half (controls) received 50 μl of rinsing buffer (0.05% Tween 20 in PBS). After rinsing, u-PA was assayed in all the wells by addition of 40 μl of plasminogen solution (100 μg/ml in assay buffer consisting of 50 mM sodium glycinate (pH 7.8), 0.1% Triton X-100, 0.1% gelatin and 10 mM 6-aminocaproic acid which also contained a very low concentration of plasmin (10 ng/ml)), and incubation took place for 30 minutes at 37° C. This concentration of plasmin in the plasminogen incubation was sufficient to enable full realization of the potential activity of pro-u-PA (cf. Petersen et al., 1988). The plasmin produced by this incubation was assayed by its thioesterase activity (Green, G. D. G., and E. Shaw, “Thiobenzyl benzyloxycarbonyl-L-lysinate, substrate for a sensitive colorimetric assay for trypsin-like enzymes”, Anal. Biochem. 93: 223-226, 1979) by the addition of 200 μl of a solution containing 200 mM potassium phosphate (pH 7.5), 200 MM KCl, 0.1% Triton X-100, 220 μM Z-lysine thiobenzyl ester (Peninsula Laboratories, Belmont, Calif.) and 220 μM 5,5′-dithiobis(2-nitrobenzoic acid) (Sigma). This mixture was incubated for 30 minutes at 37° C., and the absorbancies of the wells were read at 405 nm. Active u-PA (60,000 IU/mg) was purchased from Calbiochem-Behring (La Jolla, Calif.) and pro-u-PA (potential activity 90,000 IU/mg) was obtained from American Diagnostica.
The following additions were made to cell layers growing in MEM medium (0.5 ml) containing 10% heat-inactivated and plasminogen-depleted fetal calf serum: native human plasminogen (Plg, 40 μg/ml); anti-catalytic monoclonal antibody to human u-PA (10 μg/ml); anti-catalytic monoclonal antibody to human t-PA (10 μg/ml); PAI-2 (titration equivalent of 3.6 UI u-PA/ml); anti-catalytic monoclonal antibody to human plasmin (20 μg/ml); aprotinin (200 KIU/ml); tranexamic acid (TA, as shown). The cultures were incubated for the times shown before assay of cell-bound plasmin. The incubation with plasminogen was used as the 100% control for bound plasmin.
Confluent cell layers in serum medium (0.5 ml) were preincubated for 1 hour at 37° C. with an anti-catalytic monoclonal antibody to human u-PA (10 μg/ml) or PAI-2 (titration equivalent of 3.6 IU u-PA/ml). The cells were then rinsed three times with serum-free MEM medium before incubation for 3 hours at 37° C. with MEM medium containing 10% heat-inactivated and plasminogen-depleted fetal calf serum and native human plasminogen (Plg, 40 μg/ml). The incubation with plasminogen was used as the 100% control for bound plasmin while the control for u-PA was the incubation without plasminogen.

cell-bound pro-u-PA = test: Pro-u-PA index of cell-bound u-PA on HT-1080 cells (immunocapture assay with NPGB step); format: cell-based, human; conditions: for Pro-u-PA index (%): 2 h, serum medium, all with Plg 40 μg/ml, aprotinin (200 KIU/ml), anti-Plg-1 (20 μg/ml), TA (100 μM) rows also with anti-PAI-1 10 μg/ml
Experimental: FIG. 27. Activation of cell-bound u-PA proenzyme in serum medium after the addition of plasminogen. Confluent layers of HT-1080 cells were incubated with MEM medium containing 10% heat-inactivated and plasminogen-depleted fetal calf serum and native human plasminogen (40 μg/ml). After the time intervals shown, aprotinin (200 KIU/ml) was added and the rinsed cells were treated with acid-glycine to recover the bound fraction of u-PA. The u-PA in the neutralized eluate was assayed by an immunocapture method, using an NPGB inactivation step to determined the pro-u-PA index (see Methods).
Cell culture supernatants were assayed for pro-u-PA and active u-PA by the following modification of an immunocapture method (Stephens et al., 1988; Stephens et al., 1987). Microtitre wells of polystyrene immunoplates (type 269620, A/S Nunc, Roskilde, Denmark) were coated overnight at 37° C. with 50 μl of a solution of goat IgG antibodies to human u-PA (cat. #398, American Diagnostica). The coating solution contained 2.5 μg of IgG per ml of […] sodium carbonate (pH 9.8). After rinsing, the wells were treated with conditioned medium ([…]) for 2 hours at 23° C., then rinsed again. Half the wells were then treated with 50 μl of freshly prepared 2 μM p-nitrophenyl guanidinobenzoate (NPGB, Sigma) (Danø, K., and E. Reich, “Plasminogen activator from cells transformed by an oncogenic virus—Inhibitors of the activator reaction”, Biochim. Biophys. Acta 566: 138-151, 1979) for 20 minutes at 37° C. The other half (controls) received 50 μl of rinsing buffer (0.05% Tween 20 in PBS). After rinsing, u-PA was assayed in all the wells by addition of 40 μl of plasminogen solution (100 μg/ml in assay buffer consisting of 50 mM sodium glycinate (pH 7.8), 0.1% Triton X-100, 0.1% gelatin and 10 mM 6-aminocaproic acid which also contained a very low concentration of plasmin (10 ng/ml)), and incubation took place for 30 minutes at 37° C. This concentration of plasmin in the plasminogen incubation was sufficient to enable full realization of the potential activity of pro-u-PA (cf. Petersen et al., 1988). […] This mixture was incubated for 30 minutes at 37° C., and the absorbancies of the wells were read at 405 nm. […]
Pro-u-PA and active u-PA bound to the cell layer were recovered for immunocapture assays by the same method as was used in the metabolic labelling (see above). […] For conditioned medium and cell-bound u-PA, the u-PA activity assayed after NPGB treatment was expressed as a percentage of the total activity obtained without NPGB treatment, and this percentage used as an index of pro-u-PA content (pro-u-PA index). […]

laminin = conditions: immobilized laminin; cited from earlier work
[1] = 3 h, serum medium with Plg 40 μg/ml, additions as b555, control without Plg = 100
[2] = 17 h, serum medium with Plg 40 μg/ml, additions as b555, control without Plg = 100

Molecule	u-PA activity in medium (%) (u-PA; 3 h, Plg 40 μg/ml + TA 10 μM)	u-PA activity in medium (%) (u-PA; 3 h, Plg 40 μg/ml + TA 100 μM)	u-PA activity in medium (%) (u-PA; 17 h, Plg 40 μg/ml + TA 10 μM)	u-PA activity in medium (%) (u-PA; 17 h, Plg 40 μg/ml + TA 100 μM)	Pro-u-PA index (%) (cell-bound pro-u-PA)	u-PA activity in medium (%) (u-PA; [1])	u-PA activity in medium (%) (u-PA; [2])	Proportion of total surface-bound u-PA present as pro-u-PA (cell-bound pro-u-PA; cells incubated with human plasminogen 40 μg/ml in serum medium, plasminogen-free cultures approximately 90%)	Kd (laminin) [nM]	u-PA activity in medium (%) (u-PA; cells preincubated 1 h with inhibitor, rinsed, then 3 h with Plg 40 μg/ml in serum medium)
NC[C@H]1CC[C@H](C(=O)O)CC1 [TA, tranexamic acid]	116	92	87	95	88	–	–	–	–	–
Plg: native human plasminogen (glutamic acid N-terminal) purified from human plasma on lysine-Sepharose	–	–	–	–	50	111	83	approximately 10%	3	–
aprotinin	–	–	–	–	93	93	99	–	–	–
PAI-2: human type-2 plasminogen activator inhibitor purified from U937 cells (protein, UniProt P05120 1-415, looked up) Plasminogen activator …: MEDLCVANTLFALNLFKHLAKASPTQNLFLSPWSISSTMAMVYMGSRGSTEDQMAKVLQFNEVGANAVTPMTPENFTSCGFMQQIQKGSYPDAILQAQAADKIHSSFRSLSSAINASTGNYLLESVNKLFGEKSASFREEYIRLCQKYYSSEPQAVDFLECAEEARKKINSWVKTQTKGKIPNLLPEGSVDGDTRMVLVNAVYFKGKWKTPFEKKLNGLYPFRVNSAQRTPVQMMYLREKLNIGYIEDLKAQILELPYAGDVSMFLLLPDEIADVSTGLELLESEITYDKLNKWTSKDKMAEDEVEVYIPQFKLEEHYELRSILRSMGMEDAFNKGRANFSGMSERNDLFLSEVFHQAMVDVNEEGTEAAAGTGGVMTGRTGHGGPQFVADHPFLFLIMHKITNCILFFGRFSSP	–	–	–	–	–	89	77	–	–	86
